PubChem BioAssay (NCI)
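Following 48 hours of exposure in 96-well plates, responses at five concentrations were used to interpolate endpoints linearly. TGI is the concentration that stops growth completely.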

What was measured:
Assay in all cases: NCI anticancer screen, dose series, 48 h
RXF-631 renal = system: RXF-631 renal
HOP-18 NSCLC = system: HOP-18 NSCLC
DLD-1 colon = system: DLD-1 colon
XF 498 CNS = system: XF 498 CNS
DMS 273 small cell lung = system: DMS 273 small cell lung
SNB-78 CNS = system: SNB-78 CNS

SMILES	TGI (RXF-631 renal)	TGI (HOP-18 NSCLC)	TGI (DLD-1 colon)	TGI (XF 498 CNS)	TGI (DMS 273 small cell lung)	TGI (SNB-78 CNS)
COC(=O)CCC(NC(=S)N/N=C(\C)c1ccccn1)C(=O)OC (stereo unspecified)	> 100 µM	> 100 µM	> 100 µM	> 100 µM		
C=C1C(=O)OC2CCCCC3OC3C12 (stereo unspecified)	19.2 µM	23.3 µM	23.4 µM	24.7 µM	23.8 µM	56.5 µM
O=C(c1cc(=O)c2ccc(O)cc2o1)c1ccc(Cl)cc1Cl	> 100 µM	> 100 µM	> 100 µM	62.6 µM	> 31.6 µM	> 100 µM
CCOC(=O)C1=C(Nc2ccccc2)OC/C1=N\NC(=O)Cc1ccccc1	> 50 µM	> 50 µM	> 50 µM	> 50 µM		> 50 µM
O=C(CCc1nnc2s/c(=C\c3ccccc3)c(=O)n12)Nc1cc(Cl)ccc1Cl	> 100 µM	> 100 µM	> 100 µM	> 100 µM	> 100 µM	> 100 µM
OC(c1ccccc1)(c1ccccc1)c1ccccn1	> 100 µM	> 100 µM	> 100 µM	> 100 µM	> 100 µM	> 100 µM
N=C(N)n1ncc(Cl)c(Cl)c1=O	3.36 µM	2.86 µM	5.24 µM	3.86 µM	4.78 µM	3.98 µM
CCc1cccc(C(C)CC)c1N=C(NC(=O)c1ccccc1C(=O)NC(=Nc1c(CC)cccc1C(C)CC)SC)SC (stereo unspecified)	> 100 µM	> 100 µM	> 100 µM	> 100 µM		> 100 µM
CCSC1(SCC)CCN(C=NC(C)(C)C)C1	> 100 µM	> 100 µM	> 100 µM	> 100 µM	> 100 µM	> 100 µM
COc1c(OC(C)=O)cc2c(OC(C)=O)c1CC(C)CC(OC)C(O)C(C)/C=C(\C)C(OC(N)=O)C(OC)/C=C\C=C(/C)C(=O)N2 (stereo unspecified)	> 100 µM	> 100 µM	> 100 µM	> 100 µM	> 100 µM	> 100 µM
